Experimental data reported in ChEMBL document CHEMBL1165955, “Synthesis and biological evaluation of novel (4 or 5-aryl)pyrazolyl-indoles as inhibitors of interleukin-2 inducible T-cell kinase (ITK)” (Bioorg Med Chem, 2010).
Activity calls are given as the source filed them. No cut-off for these calls is given here.

Assays:
[1] = target: T1, Tyrosine-protein kinase ITK/TSK (Homo sapiens, UniProt Q08881); experiment: Inhibition of GST-tagged full length recombinant ITK after 2 hrs by IMAP assay
T1 sequence (Q08881 whole entry): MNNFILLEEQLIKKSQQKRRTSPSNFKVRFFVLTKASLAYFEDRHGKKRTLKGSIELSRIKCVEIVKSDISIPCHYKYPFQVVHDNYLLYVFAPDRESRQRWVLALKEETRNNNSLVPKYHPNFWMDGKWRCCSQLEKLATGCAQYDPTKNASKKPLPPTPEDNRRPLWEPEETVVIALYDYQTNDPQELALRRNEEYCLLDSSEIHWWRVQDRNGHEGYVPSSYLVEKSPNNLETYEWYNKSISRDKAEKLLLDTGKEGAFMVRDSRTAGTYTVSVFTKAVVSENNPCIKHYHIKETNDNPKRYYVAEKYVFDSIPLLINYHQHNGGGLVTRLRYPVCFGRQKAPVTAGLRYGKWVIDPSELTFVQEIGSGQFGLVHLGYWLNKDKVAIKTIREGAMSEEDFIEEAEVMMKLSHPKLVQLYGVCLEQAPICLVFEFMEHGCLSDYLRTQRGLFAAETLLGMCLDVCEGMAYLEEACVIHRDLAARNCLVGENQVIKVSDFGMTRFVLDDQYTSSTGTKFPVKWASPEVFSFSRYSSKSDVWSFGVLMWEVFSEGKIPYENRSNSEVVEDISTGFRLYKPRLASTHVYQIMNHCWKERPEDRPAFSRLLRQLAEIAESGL

[2] = target: Cyclin-dependent kinase 2/cyclin E1 (Homo sapiens, UniProt P24941); experiment: (§1) Inhibition of GST-tagged full length CDK2/Cyclin E after 40 mins by IMAP assay; format: protein-complex assay
Insulin receptor = Insulin receptor (Homo sapiens, UniProt P06213); experiment: Inhibition of GST-tagged recombinant INSR catalytic domain expressed in baculovirus-infected Sf21 cells after 80 mins by IMAP assay
[3] = target: Glycogen synthase kinase-3 beta (Homo sapiens, UniProt P49841); experiment: Inhibition of GST-tagged full length GSK3-beta assessed as inhibition of ATP consumption after 60 mins by luminescence assay
[4] = Inhibition of histidine-tagged PKA catalytic domain after 40 mins by IMAP assay
[5] = target: Cyclin-dependent kinase 2/cyclin E1 (Homo sapiens, UniProt P24864+P24941); experiment: as §1; format: protein-complex assay
[6] = target: RAC-alpha serine/threonine-protein kinase (Homo sapiens) (UniProt P31749); experiment: Inhibition of histidine-tagged full length AKT1 after 1 hr by IMAP assay
[7] = Selectivity ratio of IC50 for GST-tagged recombinant INSR catalytic domain to IC50 for GST-tagged full length recombinant ITK

Sequence of Glycogen synthase kinase-3 beta (P49841 whole entry, the tested form may be a part): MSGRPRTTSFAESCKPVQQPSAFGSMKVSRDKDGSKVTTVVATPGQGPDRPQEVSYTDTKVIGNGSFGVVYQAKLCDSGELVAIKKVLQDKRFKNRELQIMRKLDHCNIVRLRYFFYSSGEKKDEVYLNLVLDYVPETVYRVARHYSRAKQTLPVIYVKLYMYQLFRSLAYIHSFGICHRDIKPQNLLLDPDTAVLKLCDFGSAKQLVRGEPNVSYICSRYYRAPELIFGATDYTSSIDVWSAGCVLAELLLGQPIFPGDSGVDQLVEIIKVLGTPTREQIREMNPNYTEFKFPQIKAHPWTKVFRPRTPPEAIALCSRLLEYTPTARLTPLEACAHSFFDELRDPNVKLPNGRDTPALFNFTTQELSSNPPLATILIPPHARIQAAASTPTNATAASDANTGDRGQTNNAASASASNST
Sequence of Insulin receptor (P06213 28-758 limits assumed): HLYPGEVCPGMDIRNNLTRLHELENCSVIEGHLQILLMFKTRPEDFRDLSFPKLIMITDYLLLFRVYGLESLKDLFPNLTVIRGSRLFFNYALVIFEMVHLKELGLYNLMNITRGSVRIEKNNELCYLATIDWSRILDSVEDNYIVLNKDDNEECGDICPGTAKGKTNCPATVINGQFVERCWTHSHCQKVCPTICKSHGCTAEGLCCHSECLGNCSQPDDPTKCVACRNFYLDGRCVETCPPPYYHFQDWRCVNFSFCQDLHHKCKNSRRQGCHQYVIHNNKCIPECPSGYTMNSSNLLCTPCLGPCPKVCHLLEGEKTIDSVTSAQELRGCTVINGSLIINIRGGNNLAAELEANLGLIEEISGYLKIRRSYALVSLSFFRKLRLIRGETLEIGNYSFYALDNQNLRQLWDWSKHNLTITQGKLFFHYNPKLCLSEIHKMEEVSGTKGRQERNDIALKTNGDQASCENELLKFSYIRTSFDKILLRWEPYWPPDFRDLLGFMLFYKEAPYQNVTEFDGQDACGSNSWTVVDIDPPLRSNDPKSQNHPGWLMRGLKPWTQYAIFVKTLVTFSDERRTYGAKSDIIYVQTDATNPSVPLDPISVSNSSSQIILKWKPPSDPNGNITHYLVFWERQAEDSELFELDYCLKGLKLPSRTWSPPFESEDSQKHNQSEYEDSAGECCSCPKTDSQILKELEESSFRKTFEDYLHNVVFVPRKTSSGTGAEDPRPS
Sequence of Insulin receptor (P06213 763-1382 limits assumed): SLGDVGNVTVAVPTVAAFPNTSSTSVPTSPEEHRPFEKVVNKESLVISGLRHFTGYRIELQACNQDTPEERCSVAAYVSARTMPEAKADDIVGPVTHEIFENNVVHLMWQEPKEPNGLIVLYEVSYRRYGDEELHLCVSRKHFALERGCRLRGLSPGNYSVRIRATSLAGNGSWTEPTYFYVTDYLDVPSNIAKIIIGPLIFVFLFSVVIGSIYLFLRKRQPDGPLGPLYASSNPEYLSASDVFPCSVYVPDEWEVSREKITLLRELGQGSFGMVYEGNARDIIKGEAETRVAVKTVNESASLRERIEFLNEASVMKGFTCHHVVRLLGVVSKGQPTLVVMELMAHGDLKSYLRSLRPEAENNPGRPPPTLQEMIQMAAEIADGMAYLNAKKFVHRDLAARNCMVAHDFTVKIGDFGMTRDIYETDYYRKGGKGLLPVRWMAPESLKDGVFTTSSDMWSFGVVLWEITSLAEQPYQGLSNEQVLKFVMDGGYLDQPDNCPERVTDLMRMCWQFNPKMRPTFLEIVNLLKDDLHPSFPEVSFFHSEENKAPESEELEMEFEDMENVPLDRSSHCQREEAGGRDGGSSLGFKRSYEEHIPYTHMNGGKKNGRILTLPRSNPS
Sequence of RAC-alpha serine/threonine-protein kinase (Homo sapiens) (P31749 whole entry, the tested form may be a part): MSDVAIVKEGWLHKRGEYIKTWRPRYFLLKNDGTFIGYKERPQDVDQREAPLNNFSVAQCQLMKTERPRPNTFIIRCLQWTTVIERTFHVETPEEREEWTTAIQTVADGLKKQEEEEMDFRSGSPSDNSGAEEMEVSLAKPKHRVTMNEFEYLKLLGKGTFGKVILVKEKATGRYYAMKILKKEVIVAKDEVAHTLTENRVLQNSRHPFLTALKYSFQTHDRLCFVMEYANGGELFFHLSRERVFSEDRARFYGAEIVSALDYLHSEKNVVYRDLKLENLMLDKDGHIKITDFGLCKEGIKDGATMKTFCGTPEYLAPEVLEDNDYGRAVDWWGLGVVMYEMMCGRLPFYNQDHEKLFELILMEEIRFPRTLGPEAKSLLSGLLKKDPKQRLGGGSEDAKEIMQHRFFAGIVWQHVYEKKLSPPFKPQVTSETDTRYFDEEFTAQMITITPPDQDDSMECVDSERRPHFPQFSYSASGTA

| Compound | IC50 [1] | IC50 [2] | IC50 (Insulin receptor) | also measured |
| --- | --- | --- | --- | --- |
| CNC(=O)c1ccc2c(CNCc3ccncc3)c(-c3cc(Cc4ccccc4)[nH]n3)[nH]c2c1 | 5 µM |  |  |  |
| COCCNC(=O)c1ccc2cc(-c3n[nH]cc3-c3ccccc3)[nH]c2c1 | 2.51 µM |  |  |  |
| CC(C)CN(C)C(=O)c1ccc2c(CNCc3ccc(F)cc3)c(-c3cc(Cc4ccccc4)[nH]n3)[nH]c2c1 | 0.5 µM |  |  |  |
| COCCNC(=O)c1ccc2cc(-c3cc(-c4ccccc4)[nH]n3)[nH]c2c1 | 3.16 µM |  |  |  |
| Cn1nccc1CNC(=O)c1ccc2cc(-c3cc(Cc4ccccc4)[nH]n3)[nH]c2c1 | 1 µM | 12.6 µM | 20 µM | IC50 [3]: Not Active; IC50 [4]: Not Active |
| Cn1nccc1CNC(=O)c1ccc2c(CO)c(-c3cc(Cc4ccccc4)[nH]n3)[nH]c2c1 | 1.58 µM |  |  |  |
| Cn1cncc1CNC(=O)c1ccc2cc(-c3cc(-c4ccccc4)[nH]n3)[nH]c2c1 | 1.26 µM |  |  |  |
| Cn1cncc1CNC(=O)c1ccc2cc(-c3n[nH]cc3-c3ccccc3)[nH]c2c1 | 0.79 µM | 0.63 µM | 7.08 µM | IC50 ([3]; read-out: IC50): 0.54 µM; IC50 ([4]; read-out: IC50): 10 µM |
| CC(C)CN(C)C(=O)c1ccc2c(CO)c(-c3n[nH]cc3-c3ccccc3)[nH]c2c1 | > 100 µM |  |  |  |
| Cn1cncc1CNC(=O)c1ccc2cc(-c3cc(Cc4ccccc4)[nH]n3)[nH]c2c1 | 0.63 µM | 31.6 µM | 5.01 µM | IC50 [3]: Not Active; IC50 [4]: Not Active |
| CC(C)CN(C)C(=O)c1ccc2c(CNCCCO)c(-c3n[nH]cc3-c3ccccc3)[nH]c2c1 | > 100 µM |  |  |  |
| CC(C)CN(C)C(=O)c1ccc2cc(-c3cc(-c4ccccc4)[nH]n3)[nH]c2c1 | 0.85 µM |  |  |  |
| Cc1oncc1CNC(=O)c1ccc2cc(-c3cc(-c4ccccc4)[nH]n3)[nH]c2c1 | 1.82 µM |  |  |  |
| Cn1nccc1CNC(=O)c1ccc2cc(-c3cc(-c4ccccc4)[nH]n3)[nH]c2c1 | 3.16 µM |  |  |  |
| Cc1oncc1CNC(=O)c1ccc2cc(-c3n[nH]cc3-c3ccccc3)[nH]c2c1 | 0.63 µM | 0.4 µM | 5.75 µM | IC50 ([3]; read-out: IC50): 2.29 µM; IC50 ([4]; read-out: IC50): 5.01 µM |
| Cn1cncc1CNC(=O)c1ccc2c(CN3CCOCC3)c(-c3cc(Cc4ccccc4)[nH]n3)[nH]c2c1 | 0.63 µM |  |  |  |
| CC(C)CN(C)C(=O)c1ccc2cc(-c3cc(Cc4ccccc4)[nH]n3)[nH]c2c1 | 0.56 µM |  | > 100 µM | IC50 [5]: Not Active; inhibition [6]: inactive; IC50 [3]: Not Active; IC50 [4]: Not Active |
| Cn1nccc1CNC(=O)c1ccc2cc(-c3n[nH]cc3-c3ccccc3)[nH]c2c1 | 0.63 µM | 0.16 µM | 9.33 µM | IC50 ([3]; read-out: IC50): 1.26 µM; IC50 ([4]; read-out: IC50): 7.08 µM |
| COc1ccc(CNCc2c(-c3n[nH]cc3-c3ccccc3)[nH]c3cc(C(=O)N(C)CC(C)C)ccc23)cc1 | 20.4 µM |  |  |  |
| CC(C)CN(C)C(=O)c1ccc2cc(-c3n[nH]cc3-c3ccccc3)[nH]c2c1 | 0.33 µM | 3.16 µM | > 10 µM | Ratio IC50 [7]: > 30; IC50 ([3]; read-out: IC50): 6.76 µM; IC50 [4]: Not Active |
